Results reported in paper doi:10.1101/2025.03.14.643303, “A genome-scale drug discovery pipeline uncovers new therapeutic targets and a unique p97 allosteric binding site in Schistosoma mansoni” (bioRxiv, 2025).
Like-named read-outs stand apart in the source and are kept apart here.

Legend:
adult S. mansoni worms = assay: Treatment of adult S. mansoni worms in culture with inhibitors (attachment to tissue culture substrate, morphology; single 10 μM and dose-response EC50); assay type: cell-based, Schistosoma mansoni; conditions: for EC50: Schistosoma mansoni; for effect on adult worms: benzoxazole propiolamide series, treated 72 hours, monitored until D5
Experimental: Adult S. mansoni (NMRI strain) (6–7 weeks post-infection) worms were harvested from infected female Swiss Webster mice by hepatic portal vein perfusion using 37°C DMEM (Mediatech, Manassas, VA), 8% Horse Serum, and heparin.
Roughly 5 adult worm pairs were placed in 3mL Basch medium in a 12-well culture vessel, and incubated at 37°C, 5% CO2 for the length of the experiment. Compound was administered at D0, D1, and D2, media and drug refreshed every 24 hr. Worms were then allowed to remain in culture until D5, where a final assessment of worm attachment to tissue culture substate was made by light microscopy. Observations on movement and morphology were also recorded. A negative control (0.1% DMSO) and positive control (PZQ; 10 μM in 0.1% DMSO) were included in each experiment, and each experiment was repeated in triplicate for validation. For compounds that caused complete detachment in replicate experiments, the treatment was expanded to three concentrations (10 μM, 5 μM, and 1 μM) following the same treatment schedule and controls as detailed above. […] Each titration experiment was performed in triplicate according to the treatment regimen described above, using DMSO and PZQ as appropriate controls. Morphologies and motility were assessed by light microscopy, and dose-response curves were calculated using the primary readout of parasite attachment to tissue culture substrate in GraphPad Prism. […]
[…] Values were calculated using Prism.

[1] = target: S. mansoni p97 (Smp_018240) (Schistosoma mansoni, UniProt G4M0P7); assay: biochemical; conditions: for Fold Selectivity: H. sapiens vs S. mansoni p97 IC50; for Fold Selectivity / IC50: Suppl. Fig. 9C; for IC50: Sm p97, 100 μM – 1 nM, read-out: S. mansoni IC50; for activity on the enzyme: schistosome p97
S. mansoni p97 (Smp_018240), sequence (G4M0P7 entry or part of it): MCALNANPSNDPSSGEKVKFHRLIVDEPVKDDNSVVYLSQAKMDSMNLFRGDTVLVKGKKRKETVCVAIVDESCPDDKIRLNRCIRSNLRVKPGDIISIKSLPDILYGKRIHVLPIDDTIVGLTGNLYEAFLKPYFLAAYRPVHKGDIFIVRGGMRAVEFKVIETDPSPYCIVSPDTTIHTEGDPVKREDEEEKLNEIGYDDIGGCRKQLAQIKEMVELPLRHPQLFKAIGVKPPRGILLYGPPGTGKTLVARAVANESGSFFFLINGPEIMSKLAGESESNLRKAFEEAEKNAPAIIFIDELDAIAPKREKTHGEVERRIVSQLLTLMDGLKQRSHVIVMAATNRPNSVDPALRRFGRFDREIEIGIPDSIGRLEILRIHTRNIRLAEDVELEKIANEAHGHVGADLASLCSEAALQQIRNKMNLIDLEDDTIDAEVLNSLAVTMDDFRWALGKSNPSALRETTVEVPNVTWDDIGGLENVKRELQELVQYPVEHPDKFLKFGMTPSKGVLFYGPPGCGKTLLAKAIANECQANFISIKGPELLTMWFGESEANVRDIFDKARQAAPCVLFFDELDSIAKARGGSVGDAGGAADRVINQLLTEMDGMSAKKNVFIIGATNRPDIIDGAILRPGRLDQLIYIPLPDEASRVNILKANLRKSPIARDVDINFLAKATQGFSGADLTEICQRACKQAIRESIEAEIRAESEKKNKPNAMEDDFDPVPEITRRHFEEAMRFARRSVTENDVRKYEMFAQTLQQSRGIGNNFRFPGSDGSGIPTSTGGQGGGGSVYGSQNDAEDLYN
Experimental: E. coli BL21 (DE3) containing the desired plasmid were grown in LB medium containing […] kanamycin while shaking at 37 °C to an OD600 of 0.6–0.8. The temperature was reduced to 18°C and 0.8 mM isopropyl-beta-D-thiogalactopyranoside (IPTG) was added. The bacterial culture was harvested 16hr later by centrifugation. The resulting pellet was suspended in 60 mL lysis buffer/2L bacterial culture [20 mM Tris (pH 7.4), 300 mM NaCl, 5 mM MgCl2, 20 mM imidazole, 1% Triton X-100, 1 mg/mL lysozyme, 10% glycerol, 3 mM β-mercaptoethanol, 0.2 mM PMSF, and protease inhibitor tablet (Roche)]. […] The lysate was centrifuged at 40,000 × rpm for 35 min at 4°C. The resulting supernatant was incubated with Ni-NTA beads equilibrated to lysis buffer for 1 hr at 4°C before being loaded onto a gravity column. The bead bed was washed with wash buffer [20 mM Tris (pH 7.4), 500 mM NaCl, 5 mM MgCl2, 40 mM imidazole, 0.05% Triton X-100, 10% glycerol, 3 mM β-mercaptoethanol, 0.2 mM PMSF, 0.001 mg/mL Aprotinin, and 0.002 mg/mL Leupeptin], then eluted in the same buffer with 250 mM imidazole in wash buffer. Fractions containing p97 were concentrated using Pierce Protein Concentrators (100k MWCO) and loaded onto a gel-filtration column (Superdex 200PG) and eluted using SEC buffer [20 mM Tris (pH 7.4), 180 mM NaCl, 5 mM MgCl2, and 10% glycerol] at 0.5 mL/min flow rate on a BioRad NGC Chromatography System. Fractions corresponding to an apparent molecular weight of 500 – 600 kDa were collected and analyzed by 4–20% SDS/PAGE to evaluate purity. Concentration was determined using a BSA standard. Fractions containing purified protein were aliquoted, snap frozen in liquid nitrogen, and stored at −80 °C until use.
For manual ATP consumption assays, 1 μM p97 was incubated with 1% DMSO or inhibitor (1% DMSO final) in assay buffer [50 mM Tris (pH 7.5), 20 mM MgCl2, 1 mM EDTA, 0.5 mM tris(2-carboxyethyl)phosphine (TCEP)] for 5 minutes prior to the addition of 20 μM ATP in a 384-well plate for a total reaction volume of 10 μL, and a final concentration of 500nM enzyme and 10 μM ATP. The reaction was allowed to proceed for 50 minutes at room temperature before adding equivalent volume of Kinase-Glo Plus reagent (Promega), and a further incubation of 10 minutes in the dark.
IC50 values were calculated using GraphPad Prism.

H. sapiens p97 (P55072) = target: T1, H. sapiens p97 (P55072) (Homo sapiens, UniProt P55072); assay: p97 ATPase activity, ATP consumption assay (Kinase-Glo), IC50 / counter screen; assay type: biochemical; conditions: Hs p97; 100 μM – 1 nM; Suppl. Fig. 9C
T1 construct: 6xHis (C); made in house; host or cells: E. coli BL21 (DE3)
T1 sequence (P55072 whole entry): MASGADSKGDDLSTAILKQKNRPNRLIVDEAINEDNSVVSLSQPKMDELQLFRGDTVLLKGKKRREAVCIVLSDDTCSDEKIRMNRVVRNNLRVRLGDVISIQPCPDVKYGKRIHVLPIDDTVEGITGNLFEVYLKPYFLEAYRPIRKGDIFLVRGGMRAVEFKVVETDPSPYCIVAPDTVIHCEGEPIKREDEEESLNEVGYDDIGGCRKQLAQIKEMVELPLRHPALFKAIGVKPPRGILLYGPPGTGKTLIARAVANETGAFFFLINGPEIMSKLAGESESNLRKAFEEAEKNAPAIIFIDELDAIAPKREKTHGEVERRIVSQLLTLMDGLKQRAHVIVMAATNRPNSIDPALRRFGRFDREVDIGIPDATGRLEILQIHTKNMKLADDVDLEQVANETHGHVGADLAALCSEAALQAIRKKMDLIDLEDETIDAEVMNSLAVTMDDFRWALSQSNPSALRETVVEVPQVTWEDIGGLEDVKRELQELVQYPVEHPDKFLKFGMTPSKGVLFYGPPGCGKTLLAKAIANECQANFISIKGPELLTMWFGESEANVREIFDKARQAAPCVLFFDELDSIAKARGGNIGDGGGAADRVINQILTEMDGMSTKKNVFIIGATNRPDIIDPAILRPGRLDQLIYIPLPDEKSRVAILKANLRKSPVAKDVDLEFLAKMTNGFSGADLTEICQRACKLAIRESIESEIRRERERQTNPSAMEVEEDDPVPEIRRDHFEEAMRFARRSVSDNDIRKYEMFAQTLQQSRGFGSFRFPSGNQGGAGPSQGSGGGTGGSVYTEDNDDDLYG

HepG2 cells = assay: HepG2 cytotoxicity assay (Cell Titer Glo 2.0); assay type: cell-based, human; conditions: Homo sapiens
Experimental: HepG2 cells (ATCC) were plated at 2500 cells/well in 50 μL/well, dispersing cells using a 25g needle to break up clumps prior to plating. Plates were incubated for 24hr at 37C, 5% CO2. Following 24hr, 50 μL media containing 0.6% DMSO was added to a set of wells on one plate. The plate and Cell Titer Glo 2.0 reagent were brought to RT. A T=0 read was taken by adding 40 μL reagent/well, rocking the plate at 100 rpm for 2 min, then reading luminescence ~10 min later. […] 50 μL 2x concentrated compound was added to wells containing cells in 50 μL 24 hr after plating. Concentrations were tested in triplicate at following values: 30, 10, 3.3, 1.1, 0.37, 0.12, and 0.04 μM. Plates were incubated for 72 hr at 37C, 5% CO2. Following equilibration to room temperature, 40 μL undiluted reagent was added to each well, the plate rocked at 100 rpm for 2 min and then read for luminescent signal ~10 min later.
Values are plotted in excel and the 50% point determined by interpolation. Values were revisualized in Prism.

[2] = adult worms, MEK1 inhibitor, read-out: EC50
[3] = adult parasites, fraction of worms attached, 72 hours of drug treatment, in culture until D5, 50 μM - 10 nM, Suppl. Fig. 9C, read-out: S. mansoni EC50

| SMILES | Fold Selectivity [1] | IC50 [1] | activity on the enzyme [1] | EC50 (adult S. mansoni worms; [3]) | effect on adult worms (adult S. mansoni worms; 10 μM) | IC50 (H. sapiens p97 (P55072)) | also measured |
| --- | --- | --- | --- | --- | --- | --- | --- |
| O=C(NOC[C@H](O)CO)c1ccc(F)c(F)c1Nc1ccc(I)cc1F [Mirdametinib, reference compound] |  |  |  |  |  |  | EC50 (adult S. mansoni worms; [2]): > 50 µM |
| O=C(N[C@@H](C1CC1)C(F)(F)F)c1cc(-c2cnn3cc(-c4ccc(F)cc4)cnc23)cs1 [ULK-101, reference compound] |  |  |  |  |  |  | time in which inhibitor killed parasites (adult S. mansoni worms; initial concentration of 10 μM): ≤ 24 h |
| COc1ccc(C#CC(=O)Nc2ccc3oc(-c4ccccn4)nc3c2)cc1 [Compound 734, 3-(4-methoxyphenyl)-N-(2-(pyridin-2-yl)benzo[d]oxazol-5-yl)propiolamide] | 1.7 | 48 ± 2.6 µM | decreased potency on the enzyme | 7 µM | decreased activity on the worms | 83 ± 6.5 µM |  |
| Nc1nc(=O)n(-c2ccccc2Cl)c2nc(C(F)(F)F)ccc12 [IDE397, reference compound] |  |  |  |  |  |  | EC50 (adult S. mansoni worms): > 50 µM |
| CC(=O)Nc1cccc(-n2c(=O)n(C3CC3)c(=O)c3c(Nc4ccc(I)cc4F)n(C)c(=O)c(C)c32)c1 [Trametinib, reference compound] |  |  |  |  |  |  | EC50 (adult S. mansoni worms; [2]): 0.65 µM |
| Cc1ccnc(-c2nc3cc(NC(=O)C#Cc4ccncc4)ccc3o2)c1 [Compound 805, N-(2-(4-methylpyridin-2-yl)benzo[d]oxazol-5-yl)-3-(pyridin-4-yl)propiolamide] | 0.80 | 0.17 ± 0.092 µM |  | 2 µM |  | 0.14 ± 0.078 µM | GI50 (HepG2 cells; HepG2, 72 h): 1.2 µM; IC50 (HepG2 cells; HepG2, 72 h): 1.6 µM; GI50 (HepG2 cells; HepG2, read-out: HepG2 GI50): 1.2 µM; IC50 (HepG2 cells; HepG2, read-out: HepG2 IC50): 1.6 µM |
| O=C(C#Cc1cccnc1)Nc1ccc2oc(-c3ccccn3)nc2c1 [Compound 738, N-(2-(pyridin-2-yl)benzo[d]oxazol-5-yl)-3-(pyridin-3-yl)propiolamide] | 1.9 | 0.42 ± 0.057 µM |  | 3.5 µM | death of the parasites | 0.78 ± 0.14 µM | time to detachment of adult worms in culture (adult S. mansoni worms; 10 μM): ≤ 24 h |
| O=C(C#Cc1ccc(Cl)cc1)Nc1ccc2oc(-c3ccccn3)nc2c1 [Compound 736, 3-(4-chlorophenyl)-N-(2-(pyridin-2-yl)benzo[d]oxazol-5-yl)propiolamide] | 1.1 | 5.9 ± 1.3 µM | decreased potency on the enzyme | 12 µM | decreased activity on the worms | 6.7 ± 0.055 µM |  |
| O=C(C#Cc1cccc(Cl)c1)Nc1ccc2oc(-c3ccccn3)nc2c1 [Compound 735, 3-(3-chlorophenyl)-N-(2-(pyridin-2-yl)benzo[d]oxazol-5-yl)propiolamide] | 0.70 | 11 ± 0.47 µM | abolishing activity on the enzyme | 4.2 µM | still active on worms | 7.3 ± 0.66 µM |  |
| O=C(C#CC1CC1)Nc1ccc2oc(-c3ccccn3)nc2c1 [Compound 732, 3-cyclopropyl-N-(2-(pyridin-2-yl)benzo[d]oxazol-5-yl)propiolamide] |  | > 100 µM | abolishing activity on the enzyme | 1.3 µM | still active on worms |  |  |
| CN(C)CCc1nnc2cc(-c3ccccc3)c3cc(Cl)ccc3n12 [PF-9366, reference compound] |  |  |  |  |  |  | EC50 (adult S. mansoni worms): 43 µM |
| O=C(C#Cc1ccccn1)Nc1ccc2oc(-c3ccccn3)nc2c1 [Compound 737, 3-(pyridin-2-yl)-N-(2-(pyridin-2-yl)benzo[d]oxazol-5-yl)propiolamide] | 4.3 | 3 ± 0.41 µM | decreased potency on the enzyme | 22 µM | decreased activity on the worms | 13 ± 2.2 µM |  |
| Cc1ccc(-c2nc3cc(NC(=O)C#Cc4ccncc4)ccc3o2)nc1 [Compound 806, N-(2-(5-methylpyridin-2-yl)benzo[d]oxazol-5-yl)-3-(pyridin-4-yl)propiolamide] | 1.1 | 0.47 ± 0.17 µM |  | 3.2 µM |  | 0.51 ± 0.16 µM | GI50 (HepG2 cells; HepG2, 72 h): 1.5 µM; IC50 (HepG2 cells; HepG2, 72 h): 1.8 µM; GI50 (HepG2 cells; HepG2, read-out: HepG2 GI50): 1.5 µM; IC50 (HepG2 cells; HepG2, read-out: HepG2 IC50): 1.8 µM |
| Cc1cccc(-c2nc3cc(NC(=O)C#Cc4ccncc4)ccc3o2)n1 [Compound 807, N-(2-(6-methylpyridin-2-yl)benzo[d]oxazol-5-yl)-3-(pyridin-4-yl)propiolamide] | 0.70 | 0.67 ± 0.17 µM |  | 1.8 µM |  | 0.49 ± 0.057 µM | GI50 (HepG2 cells; HepG2, 72 h): 1.1 µM; IC50 (HepG2 cells; HepG2, 72 h): 1.4 µM; GI50 (HepG2 cells; HepG2, read-out: HepG2 GI50): 1.1 µM; IC50 (HepG2 cells; HepG2, read-out: HepG2 IC50): 1.4 µM |
| Cc1cccnc1-c1nc2cc(NC(=O)C#Cc3ccncc3)ccc2o1 [Compound 804, N-(2-(3-methylpyridin-2-yl)benzo[d]oxazol-5-yl)-3-(pyridin-4-yl)propiolamide] | 0.70 | 0.19 ± 0.063 µM |  | 0.76 µM |  | 0.14 ± 0.062 µM | GI50 (HepG2 cells; HepG2, 72 h): 0.93 µM; IC50 (HepG2 cells; HepG2, 72 h): 1.2 µM; GI50 (HepG2 cells; HepG2, read-out: HepG2 GI50): 0.93 µM; IC50 (HepG2 cells; HepG2, read-out: HepG2 IC50): 1.2 µM |
